Assay results as given in PMC3510187, “1-Anilino-8-Naphthalene Sulfonate (ANS) Is Not a Desirable Probe for Determining the Molten Globule State of Chymopapain” (PLoS ONE, 2012).

Biological target: T1, chymopapain (Carica papaya, UniProt P14080)
T1 construct: native mature enzyme from papaya latex, commercial (Sigma C8526), dialysed; monomer; acid-unfolded states in the assay
Test: isothermal titration calorimetry (two sets of independent sites)
Settings: read-out: High affinity binding site / K1 (M^-1)
Text: isothermal titration calorimetry (two sets of independent sites) on chymopapain

T1 sequence (P14080 135-352): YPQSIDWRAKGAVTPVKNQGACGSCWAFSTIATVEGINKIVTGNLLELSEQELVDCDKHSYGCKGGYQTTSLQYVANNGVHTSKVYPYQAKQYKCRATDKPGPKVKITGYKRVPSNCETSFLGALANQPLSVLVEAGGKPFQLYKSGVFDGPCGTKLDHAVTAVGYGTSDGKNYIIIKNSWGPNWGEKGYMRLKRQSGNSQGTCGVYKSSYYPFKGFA

Kd: 2.94 µM
Compound: O=S(=O)(O)c1cccc2cccc(Nc3ccccc3)c12 [1-anilino-8-naphthalene sulfonate]
